Reference: DBAASP
Values after ≈ are worked out from the molar mass of the structure shown. One block for each molecule: values may come before it.

Assays:
Assay in all cases: ≥ marks a high value that may be exact or a test limit, other limits are often not marked, values filed in µg/mL are converted to µM
[1] = system: Bacillus cereus ATCC 14579
[2] = system: Bacillus subtilis ATCC 23857
[3] = system: Candida albicans ATCC 90028
[4] = system: Cryptococcus neoformans ATCC 28957
[5] = system: Escherichia coli ATCC 25922
[6] = system: Fusarium oxysporum f.sp. vasinfectum
[7] = system: Fusarium oxysporum
[8] = system: Fusarium solani
[9] = system: Pectobacterium carotovorum
[10] = system: Pseudomonas aeruginosa ATCC 27853
[11] = system: Pseudomonas syringae pv. tabaci
[12] = system: Ramulariopsis gossypii
[13] = system: Rhizoctonia solani
[14] = system: Staphylococcus aureus ATCC 25923
[15] = system: Trichoderma asperellum
[16] = system: Xanthomonas campestris pv. citri
[17] = system: Bacillus cereus NCLM 2156
[18] = system: Escherichia coli NCLM 2064
[19] = system: Pseudomonas aeruginosa ATCC 10145
[20] = system: Vibrio cholerae PL91
[21] = system: Acinetobacter baumannii Q12-0809
[22] = system: Acinetobacter baumannii Q12-0867
[23] = system: Acinetobacter baumannii Q13-0717
[24] = system: Campylobacter jejuni ATCC 33292
[25] = system: Campylobacter jejuni NCTC 11161
[26] = system: Campylobacter jejuni NCTC 11351
[27] = system: Enterococcus faecalis JH-2-2
[28] = system: Escherichia coli K-12
[29] = system: Escherichia coli
[30] = system: Klebsiella pneumoniae ATCC 700603
[31] = system: Klebsiella pneumoniae NCTC 13442
[32] = system: Klebsiella pneumoniae Q14-0095
[33] = system: Klebsiella pneumoniae Q14-0285
[34] = system: Listeria monocytogenes NCTC 11994
[35] = system: Pseudomonas aeruginosa PAO1
[36] = system: Pseudomonas aeruginosa Q12-0535
[37] = system: Pseudomonas aeruginosa Q14-0208
[38] = system: Pseudomonas aeruginosa Q14-0890
[39] = system: Salmonella typhimurium SL1344
[40] = system: Staphylococcus aureus ATCC 29213
[41] = system: Staphylococcus aureus ATCC 33591
[42] = system: Staphylococcus aureus MRSA-15
[43] = system: Staphylococcus aureus NCTC 12493
[44] = system: Staphylococcus aureus Q14-0320
[45] = system: Staphylococcus aureus RN4220
[46] = system: Staphylococcus aureus USA 300
[47] = system: Candida albicans NCTC 3179

- MIC [1]: 6.67 µM (≈ 16.4 µg/mL)
- MIC [2]: 2 µM (≈ 4.92 µg/mL)
- MIC [3]: 4 µM (≈ 9.84 µg/mL)
- MIC [4]: 8 µM (≈ 19.7 µg/mL)
- MIC [5]: 2 µM (≈ 4.92 µg/mL)
- MIC [6]: 2 µM (≈ 4.92 µg/mL)
- MIC [7]: ≥ 32 µM
- MIC [8]: ≥ 32 µM
- MIC [9]: 3.33 µM (≈ 8.19 µg/mL)
- MIC [10]: 4 µM (≈ 9.84 µg/mL)
- MIC [11]: 4 µM (≈ 9.84 µg/mL)
- MIC [12]: 4 µM (≈ 9.84 µg/mL)
- MIC [13]: 16 µM (≈ 39.4 µg/mL)
- MIC [14]: 2 µM (≈ 4.92 µg/mL)
- MIC [15]: 16 µM (≈ 39.4 µg/mL)
- MIC [16]: 4 µM (≈ 9.84 µg/mL)
Structure (SMILES): CC(C)C[C@H](NC(=O)[C@H](C)NC(=O)[C@H](C)NC(=O)[C@@H](NC(=O)[C@H](CC(C)C)NC(=O)[C@H](CCCCN)NC(=O)[C@@H](NC(=O)[C@H](CC(C)C)NC(=O)[C@H](CCCN=C(N)N)NC(=O)[C@H](Cc1cnc[nH]1)NC(=O)[C@@H](N)CC(C)C)C(C)C)C(C)C)C(=O)N[C@@H](CC(C)C)C(=O)N[C@@H](CCCN=C(N)N)C(=O)NCC(=O)N[C@@H](Cc1ccc(O)cc1)C(=O)N[C@@H](C)C(=O)N[C@@H](CO)C(=O)N[C@@H](CCCCN)C(=O)N[C@H](C(=O)N[C@@H](CC(=O)O)C(=O)N[C@H](C(=O)N[C@@H](Cc1cnc[nH]1)C(N)=O)[C@@H](C)O)C(C)C [LHRLVKLVAALLRGYASKVDTH]

- MIC [17]: ≥ 39.7 µM
- MIC [18]: 11.9 µM (≈ 30 µg/mL)
- MIC [19]: ≥ 59.6 µM
- MIC [14]: > 59.6 µM
Structure (SMILES): CC[C@H](C)[C@H](NC(=O)[C@H](CCCCN)NC(=O)[C@@H](NC(=O)[C@H](CC(C)C)NC(=O)[C@@H]1CCCN1C(=O)CNC(=O)[C@H](Cc1ccccc1)NC(=O)[C@@H](N)Cc1ccccc1)[C@@H](C)CC)C(=O)N[C@@H](C)C(=O)N[C@H](C(=O)NCC(=O)N[C@H](C(=O)N[C@@H](CC(C)C)C(=O)N1CCC[C@H]1C(=O)N[C@@H](CC(N)=O)C(=O)N[C@@H](CC(C)C)C(=O)N[C@H](C(=O)N[C@H]1CSSC[C@@H](C(=O)O)NC(=O)[C@H](CCCCN)NC(=O)CNC(=O)[C@H](CC(C)C)NC(=O)[C@H](C)NC(=O)[C@H](CCCCN)NC1=O)[C@@H](C)CC)C(C)C)[C@@H](C)O [FFGPLIKIATGVLPNLICKALGKC]
- MIC [20]: ≥ 59.6 µM

- MIC [21]: 6.03 µM (≈ 16 µg/mL)
- MIC [22]: 3.02 µM (≈ 8 µg/mL)
- MIC [23]: 12.1 µM (≈ 32 µg/mL)
- MIC [24]: 24.1 µM (≈ 64 µg/mL)
- MIC [25]: ≥ 96.5 µM
- MIC [26]: ≥ 48.2 µM
- MIC [27]: 24.1 µM (≈ 64 µg/mL)
- MIC [28]: 24.1 µM (≈ 64 µg/mL)
- MIC [29]: 48.2 µM (≈ 128 µg/mL)
- MIC [30]: 12.1 µM (≈ 32 µg/mL)
- MIC [31]: 12.1 µM (≈ 32 µg/mL)
- MIC [32]: 12.1 µM (≈ 32 µg/mL)
- MIC [33]: 24.1 µM (≈ 64 µg/mL)
- MIC [34]: 12.1 µM (≈ 32 µg/mL)
- MIC [10]: 48.2 µM (≈ 128 µg/mL)
- MIC [35]: 12.1 µM (≈ 32 µg/mL)
- MIC [36]: ≥ 48.2 µM
- MIC [37]: 12.1 µM (≈ 32 µg/mL)
- MIC [38]: 6.03 µM (≈ 16 µg/mL)
- MIC [39]: 24.1 µM (≈ 64 µg/mL)
- MIC [40]: 48.2 µM (≈ 128 µg/mL)
- MIC [41]: 24.1 µM (≈ 64 µg/mL)
- MIC [42]: 12.1 µM (≈ 32 µg/mL)
- MIC [43]: 24.1 µM (≈ 64 µg/mL)
- MIC [44]: ≥ 48.2 µM
- MIC [45]: 12.1 µM (≈ 32 µg/mL)
- MIC [46]: 24.1 µM (≈ 64 µg/mL)
Structure (SMILES): CC(C)C[C@H](NC(=O)[C@H](CS)NC(=O)[C@H](CC(C)C)NC(=O)[C@H](CCCN=C(N)N)NC(=O)[C@H](Cc1c[nH]c2ccccc12)NC(=O)[C@@H]1CCCN1C(=O)[C@@H](NC(=O)[C@H](CCCN=C(N)N)NC(=O)[C@H](CCCN=C(N)N)NC(=O)[C@H](Cc1ccccc1)NC(=O)[C@H](CCCN=C(N)N)NC(=O)[C@H](C)NC(=O)[C@@H](NC(=O)[C@H](Cc1ccccc1)NC(=O)[C@H](CCCN=C(N)N)NC(=O)[C@@H](N)CC(N)=O)[C@@H](C)O)[C@@H](C)O)C(=O)N[C@@H](CCC(N)=O)C(=O)N[C@@H](Cc1ccccc1)C(=O)N[C@@H](CCCN=C(N)N)C(=O)N[C@@H](CCC(N)=O)C(=O)O [NRFTARFRRTPWRLCLQFRQ]

- MIC [47]: ≥ 90.6 µM
- MIC [5]: 2.03 µM (≈ 5.6 µg/mL)
- MIC [14]: 11.2 µM (≈ 31 µg/mL)
Structure (SMILES): CC[C@H](C)[C@H](NC(=O)[C@H](C)NC(=O)[C@H](CC(=O)O)NC(=O)[C@H](CC(C)C)NC(=O)[C@H](CC(N)=O)NC(=O)[C@H](C)N)C(=O)N[C@H](C(=O)N[C@@H](CCCCN)C(=O)N[C@H](C(=O)N[C@@H](CCC(N)=O)C(=O)N[C@@H](C)C(=O)N[C@@H](Cc1c[nH]c2ccccc12)C(=O)N[C@@H](C)C(=O)N[C@@H](CCCN=C(N)N)C(=O)N[C@@H](CCSC)C(=O)N[C@@H](Cc1c[nH]c2ccccc12)C(=O)N[C@@H](C)C(=O)N[C@@H](C)C(=O)N[C@@H](CCCN=C(N)N)C(=O)N[C@@H](CCCN=C(N)N)C(=O)N[C@@H](CCC(N)=O)C(=O)N[C@@H](Cc1ccc(O)cc1)C(=O)N[C@@H](CC(C)C)C(=O)O)[C@@H](C)CC)[C@@H](C)CC [ANLDAIIKIQAWARMWAARRQYL]
